Drawing on article PMC7344390, “Leptogorgins A–C, Humulane Sesquiterpenoids from the Vietnamese Gorgonian Leptogorgia sp” (Marine Drugs, 2020), this text covers IC50 and antitumor activity for four compounds.

Where only a bound is given, the exact number is not on record here.

For test [1], the system named is PNT2 cells (human prostate non-cancer cells). The test is described as follows: In vitro MTT-based drug sensitivity assay, PNT2 cells. Particulars: 72 h treatment, read-out: IC50 (cell viability, MTT). Here is the method: (§1) The human prostate cancer cells 22Rv1 and human prostate non-cancer cells PNT2 were purchased from ATCC. Cell lines were cultured according to the manufacturer’s instructions in 10% FBS/RPMI media (Invitrogen, Carlsbad, CA, USA) and handled as described in [29].
(§2) The in vitro cytotoxic activities of the isolated substances were evaluated by MTT assays. The assays were performed as described previously. In brief, cells were seeded in 96-well plates (6 × 10^3 cells/well), incubated overnight, and treated with the tested compounds for 72 h. Next, 10 μL/well of MTT reagent was added and the plates were incubated for 2 h. The media were aspirated and the plates were dried. The formed formazan crystals were dissolved in DMSO and the cell viability was measured using an Infinite F200PRO reader (TECAN, Männedorf, Switzerland). Results were calculated by the GraphPad Prism software v. 7.05 (GraphPad Prism software Inc., La Jolla, CA, USA) and are represented as the IC50 of the compounds against the control cells treated with the solvent alone.

The subject of test [2] is 22Rv1 cells (human drug-resistant prostate cancer cells). The test is described as follows: In vitro MTT-based drug sensitivity assay, 22Rv1 cells. The note with it: 72 h treatment, read-out: IC50 (cell viability, MTT). Here is the method: as §1, §2
A further test concerns NCF-7. The arrangement: method as in PMID 12881017. Particulars: human cancer NCF-7 cell line; more active than curcumin; cited from earlier work.
A further test deals with HT-29. The arrangement: method as in PMID 12881017. Particulars: human cancer HT-29 cell line; more active than curcumin; cited from earlier work.
The test system of a further test is CaCO-2. The arrangement: method as in PMID 12881017. The note with it: human cancer CaCO-2 cell line; more active than curcumin; cited from earlier work.

The IC50 is the point on the concentration scale where inhibition reaches its midpoint. Regarding `CC1=CCC(C)(C)C=CC(=O)C(CO)=CC(O)C1` (stereo not drawn) [Compound 1, 4-oxohumula-2E,5E,9E-trien-7S,12-diol], the IC50 in test [1] was determined as 35.8 µM; in test [2] it was 31 µM.

`CC(=O)OC1C=C(CO)C(=O)C=CC(C)(C)CC=C(C)C1` (stereo not drawn) [Compound 2, 4-oxohumula-2E,5E,9E-trien-7S-acetate,12-ol]: the IC50 in test [1] and in test [2] was more than 100 µM throughout.

For `COc1cccc2c1C(=O)c1c(O)c3c(c(O)c1C2=O)C[C@@](O)(C(=O)CO)C[C@@H]3O[C@H]1C[C@H](N)[C@H](O)[C@H](C)O1` [Doxorubicine], the results for the IC50 in test [1] and in test [2] were 1.12 µM and 0.084 µM, respectively.

For `C/C1=C\CC(C)(C)/C=C/C(=O)/C(C)=C/CC1` [zurumbone, 2,6,9-humulatriene-8-one], the antitumor activity entry in the test on NCF-7, in the test on HT-29 and with CaCO-2 was “active” in each case.
